Like-named read-outs stand apart in the source and are kept apart here.
Key:
Type in all cases: biochemical
[1] = target: T1, COX-1 (ovine) (Ovis aries, UniProt P05979); test: In vitro COX-1 inhibition assay (EIA kit)
T1 construct: purchased Cayman Chemical
T1 sequence (P05979 25-600): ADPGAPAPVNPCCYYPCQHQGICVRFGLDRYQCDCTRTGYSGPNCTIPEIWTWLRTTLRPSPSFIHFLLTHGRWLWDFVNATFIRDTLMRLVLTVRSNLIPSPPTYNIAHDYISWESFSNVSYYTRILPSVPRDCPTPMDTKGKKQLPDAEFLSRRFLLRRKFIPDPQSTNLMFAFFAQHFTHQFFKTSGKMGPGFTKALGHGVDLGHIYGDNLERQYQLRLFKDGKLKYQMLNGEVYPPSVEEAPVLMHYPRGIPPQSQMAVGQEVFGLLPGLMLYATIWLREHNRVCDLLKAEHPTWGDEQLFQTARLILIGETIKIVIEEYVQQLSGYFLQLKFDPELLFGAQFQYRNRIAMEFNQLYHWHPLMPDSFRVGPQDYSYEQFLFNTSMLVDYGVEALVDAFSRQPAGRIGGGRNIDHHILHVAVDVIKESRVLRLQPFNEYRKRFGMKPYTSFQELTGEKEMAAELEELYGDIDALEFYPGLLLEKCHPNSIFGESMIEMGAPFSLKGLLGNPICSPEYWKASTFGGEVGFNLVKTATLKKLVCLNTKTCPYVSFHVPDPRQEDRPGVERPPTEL
Procedure: (§1) The inhibitory activity was measured and reported as IC50 value (µM). Data are expressed as IC50 ± SEM for triplicate studies.
(§2) Colorimetric enzyme immunoassay (EIA) was used to assess the inhibitory potential of the test compounds against COX-1, COX-2, and 5-LOX enzymes.

[2] = target: T2, COX-2 (human recombinant) (Homo sapiens, UniProt P35354); test: In vitro COX-2 inhibition assay (EIA kit); settings: mean of three replicates ± SEM
T2 construct: purchased Cayman Chemical
T2 sequence (P35354 18-604): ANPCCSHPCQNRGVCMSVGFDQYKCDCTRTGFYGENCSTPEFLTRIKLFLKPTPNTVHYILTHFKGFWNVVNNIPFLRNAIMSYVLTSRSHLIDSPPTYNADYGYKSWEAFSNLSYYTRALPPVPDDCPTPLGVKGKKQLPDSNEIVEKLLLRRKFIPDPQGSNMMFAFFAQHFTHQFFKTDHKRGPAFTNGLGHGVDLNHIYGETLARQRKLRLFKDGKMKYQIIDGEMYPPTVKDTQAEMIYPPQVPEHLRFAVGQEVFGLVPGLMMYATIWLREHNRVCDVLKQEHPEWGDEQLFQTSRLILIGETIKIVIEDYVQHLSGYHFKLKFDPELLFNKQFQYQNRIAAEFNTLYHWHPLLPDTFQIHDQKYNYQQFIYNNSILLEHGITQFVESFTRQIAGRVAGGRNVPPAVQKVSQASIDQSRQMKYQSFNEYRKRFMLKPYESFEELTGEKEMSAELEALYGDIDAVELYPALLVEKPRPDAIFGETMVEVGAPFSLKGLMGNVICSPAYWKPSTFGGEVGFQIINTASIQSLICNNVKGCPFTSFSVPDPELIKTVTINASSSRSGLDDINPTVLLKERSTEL
Procedure: as §1, §2

[3] = target: T3, 5-LOX enzyme (Homo sapiens, UniProt P09917); test: In vitro 5-LOX inhibition assay (Human Lipoxygenase Inhibitor screening kit); settings: mean of three replicates ± SEM
T3 construct: purchased Cayman Chemical
T3 sequence (P09917 1-674): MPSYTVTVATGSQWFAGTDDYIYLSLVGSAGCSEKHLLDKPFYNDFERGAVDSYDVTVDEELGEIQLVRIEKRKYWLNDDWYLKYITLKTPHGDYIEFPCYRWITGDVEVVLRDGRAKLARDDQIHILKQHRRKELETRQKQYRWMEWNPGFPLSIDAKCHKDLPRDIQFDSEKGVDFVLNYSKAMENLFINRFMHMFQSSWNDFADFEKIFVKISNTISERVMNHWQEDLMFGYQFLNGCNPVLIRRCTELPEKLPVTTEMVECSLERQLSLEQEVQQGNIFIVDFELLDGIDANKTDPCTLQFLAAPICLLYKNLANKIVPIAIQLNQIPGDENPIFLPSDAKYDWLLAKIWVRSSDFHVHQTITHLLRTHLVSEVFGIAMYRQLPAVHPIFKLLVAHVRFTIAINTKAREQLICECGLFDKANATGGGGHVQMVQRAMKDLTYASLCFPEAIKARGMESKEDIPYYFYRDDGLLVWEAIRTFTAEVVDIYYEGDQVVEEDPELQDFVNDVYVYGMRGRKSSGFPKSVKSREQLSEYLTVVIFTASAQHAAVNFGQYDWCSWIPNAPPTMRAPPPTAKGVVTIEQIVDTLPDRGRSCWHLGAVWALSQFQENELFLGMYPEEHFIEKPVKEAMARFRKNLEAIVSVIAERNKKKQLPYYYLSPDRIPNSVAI
Procedure: The ability of the test compounds to inhibit the 5-LOX enzyme was evaluated using the Human Lipoxygenase Inhibitor screening assay (EIA) kit (Cayman Chemical). The IC50 values were measured in µM according to the manufacturer’s instructions and reported method[63]–[65]. Data are expressed as IC50 ± SEM for triplicate studies.
as §2

| SMILES | IC50 [1] [µM] | IC50 [2] [µM] | IC50 [3] [µM] | IC50 ([1]; mean of three replicates ± SEM, read-out: IC50 data COX-1) [µM] |
| --- | --- | --- | --- | --- |
| COc1cc(CNC(=O)CCCC/C=C/C(C)C)ccc1O [Capsaicin, (E)-N-(4-hydroxy-3-methoxybenzyl)-8-methylnon-6-enamide] | 24.4 ± 0.62 | 28.3 ± 0.55 | 36.4 ± 0.39 | – |
| COc1cc(/C=C/C(=O)CC(=O)/C=C/c2ccc(O)c(OC)c2)ccc1O [Curcumin, (1E,6E)-1,7-bis(4-hydroxy-3-methoxyphenyl)hepta-1,6-diene-3,5-dione] | 18.6 ± 0.44 | – | – | – |
| CCCCC[C@H](O)CC(=O)CCc1ccc(O)c(OC)c1 [Gingerol, (S)-5-hydroxy-1-(4-hydroxy-3-methoxyphenyl)decan-3-one] | – | 32.82 ± 0.24 | 42.65 ± 0.17 | 27.1 ± 0.82 |
